Data published in ChEMBL document CHEMBL1201862, “PubChem BioAssay data set” (2004).
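How tested: cells in 96-well plates exposed to compound for 48 hours at five concentrations. GI50 marks 50% less growth.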 The source made the active and inactive calls. Cut-off read from the data, not from the text of the source: active = GI50 up to about 1.1 µM and inactive = higher.

Key:
Experiment in all cases: NCI anticancer screen, dose series, 48 h
LOX IMVI = test system: LOX IMVI
IGROV-1 = test system: IGROV-1
SF-295 = test system: SF-295
DMS-273 = test system: DMS-273
SK-MEL-5 = test system: SK-MEL-5
HCC 2998 = test system: HCC 2998
OVCAR-8 = test system: OVCAR-8
DLD-1 = test system: DLD-1
HOP-62 = test system: HOP-62
HOP-92 = test system: HOP-92
786-0 = test system: 786-0
EKVX = test system: EKVX
SNB-19 = test system: SNB-19
MOLT-4 = test system: MOLT-4
SNB-75 = test system: SNB-75
UO-31 = test system: UO-31
UACC-62 = test system: UACC-62
KM-20L2 = test system: KM-20L2
HCT-15 = test system: HCT-15
NCI-H460 = test system: NCI-H460
SF-539 = test system: SF-539
XF498 = test system: XF498
NCI-H23 = test system: NCI-H23
COLO 205 = test system: COLO 205
HCT-116 = test system: HCT-116
NCI-H226 = test system: NCI-H226
NCI-H522 = test system: NCI-H522
LXFL 529 = test system: LXFL 529
HOP-18 = test system: HOP-18
M14 = test system: M14
M19-MEL = test system: M19-MEL
DMS-114 = test system: DMS-114
UACC-257 = test system: UACC-257
SK-MEL-2 = test system: SK-MEL-2
CCRF-CEM = test system: CCRF-CEM
RXF 393 = test system: RXF 393
RPMI-8226 = test system: RPMI-8226
SN12C = test system: SN12C
ACHN = test system: ACHN
SF-268 = test system: SF-268
TK-10 = test system: TK-10
A498 = test system: A498
SK-MEL-28 = test system: SK-MEL-28
HL-60 = test system: HL-60
A549 = test system: A549
U-251 = test system: U-251
Malme-3M = test system: Malme-3M
SK-OV-3 = test system: SK-OV-3
HT-29 = test system: HT-29
CAKI-1 = test system: CAKI-1
SR = test system: SR
OVCAR-3 = test system: OVCAR-3
SW-620 = test system: SW-620
K562 = test system: K562
SNB-78 = test system: SNB-78
OVCAR-4 = test system: OVCAR-4
OVCAR-5 = test system: OVCAR-5

Measured: GI50

Cc1ccccc1/N=N/c1c(-c2ccccc2)nn(C(=O)CC(=O)Nc2cccc(Cl)c2)c1-c1ccccc1
16.9 µM: HCT-15
active: UACC-257 0.247 µM | TK-10 0.27 µM
inactive: LOX IMVI 15.3 µM | IGROV-1 > 31.6 µM | SF-295 22 µM | DMS-273 20 µM | SK-MEL-5 15.8 µM | HCC 2998 22.2 µM | OVCAR-8 21.3 µM | DLD-1 20.4 µM | HOP-62 > 31.6 µM | HOP-92 26.3 µM | 786-0 18.5 µM | EKVX 28.4 µM | SNB-19 36.4 µM | MOLT-4 13 µM | SNB-75 28.2 µM | UO-31 14.5 µM | UACC-62 22 µM | KM-20L2 21.5 µM | NCI-H460 19.6 µM | SF-539 24.2 µM | XF498 28.2 µM | NCI-H23 20.1 µM | COLO 205 14.9 µM | HCT-116 13.4 µM | NCI-H226 16 µM | NCI-H522 > 10 µM | LXFL 529 21.6 µM | HOP-18 25.7 µM | M14 22.1 µM | M19-MEL > 10 µM | DMS-114 14.9 µM | SK-MEL-2 12.7 µM | CCRF-CEM 15.8 µM | RXF 393 19.9 µM | RPMI-8226 12.1 µM | SN12C 15.8 µM | ACHN 23 µM | SF-268 24 µM | A498 19 µM | SK-MEL-28 > 31.5 µM | HL-60 17.3 µM | A549 > 10 µM | U-251 13.7 µM | Malme-3M 37.9 µM | SK-OV-3 27.7 µM | HT-29 15.3 µM | CAKI-1 31.6 µM | SR 9.1 µM | OVCAR-3 18.5 µM | SW-620 3.16 µM | K562 16.8 µM | SNB-78 23.5 µM | OVCAR-4 22.6 µM | OVCAR-5 16.7 µM
